Laboratory results reported in patent publication US20020137929A1, “1 - (3-heterocyclylphenyl) isothiourea, -isourea, -guanidine and -amidine herbicidal agents” (Intellectual Property Department, BASF Aktiengesellschaft, priority 1998, published 2002).

Assays:
[1] = tested on: GLXMAW (Soybean, Williams); assay: Preemergence herbicidal evaluation; type: in vivo, Glycine max, (L.) Merr. cv Williams; details: rated 4-5 weeks after treatment
Summary of the method: (§1)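 Greenhouse preemergence test: seed-soil mix sown on ~1 inch soil; aqueous acetone spray at equivalent of ~0.0156–0.500 kg/ha; greenhouse-held and watered; scored 0–9 visually at 4–5 weeks.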

[2] = tested on: IPOHE (Morningglory, Ivyleaf); assay: Postemergence herbicidal evaluation; type: in vivo, Ipomoea hederacea; details: postemergence
Summary of the method: (§2)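 Seedlings grown about two weeks were sprayed at 40 psi with compound dispersed in 50/50 acetone/water plus 0.5% TWEEN 20, at about 0.0156 to 0.500 kg/ha. Plants were kept in the greenhouse and scored 4–5 weeks later on a 0–9 visual scale against untreated controls.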

[3] = tested on: ECHORC (Watergrass (Calif.)); assay: Postemergence weed control under flooded paddy conditions; type: in vivo, Echinochloa oryzoides; details: postemergence weeds, rated 3 to 4 weeks after treatment
Summary of the method: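 With weeds 3 to 5 cm tall and rice at the 1.5 to 2.5 leaf stage, containers were flooded and water held 1.5 to 3 cm above soil. Compounds in 50/50 v/v aqueous/acetone went into the flood water at about 0.0313 to 0.500 kg/ha a.i. Effects were visually rated 0–9 against controls after three to four weeks in the greenhouse.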

[4] = tested on: CYPSE (Flatsedge); assay: Preemergence weed control under flooded paddy conditions; type: in vivo, Cyperus serotinus; details: rated 3-4 weeks after treatment
Summary of the method: (§3)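 Ratings on a 0-9 visual scale cover stand, vigor, malformation, size, chlorosis and overall appearance relative to a control, taken three to four weeks post-treatment. Application was into flood water over freshly sown silt loam at roughly 0.0313 to 0.500 kg/ha.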

[5] = tested on: SAGPY (Arrowhead (Pygmaea)); assay: as above; type: in vivo, Sagittaria pygmaea; details: rated 3-4 weeks after treatment
Summary of the method: as §3

[6] = tested on: CASOB (Sicklepod); assay: Preemergence herbicidal evaluation; type: in vivo, Cassia obtusifolia; details: rated 4-5 weeks after treatment
Summary of the method: as §1

[7] = tested on: GALAP (Galium); assay: Preemergence herbicidal evaluation; type: in vivo, Galium aparine; details: rated 4-5 weeks after treatment
Summary of the method: as §1

[8] = tested on: GLXMAW (Soybean, Williams); assay: Postemergence herbicidal evaluation; type: in vivo, Glycine max, (L.) Merr. cv Williams; details: postemergence
Summary of the method: as §2

[9] = tested on: ECHCG (Barnyardgrass); assay: Preemergence herbicidal evaluation; type: in vivo, Echinochloa crus-galli; details: rated 4-5 weeks after treatment
Summary of the method: as §1

[10] = tested on: AMBEL (Ragweed, Common); assay: Postemergence herbicidal evaluation; type: in vivo, Ambrosia artemisifolia; details: postemergence
Summary of the method: as §2

[11] = tested on: AMBEL (Ragweed, Common); assay: Preemergence herbicidal evaluation; type: in vivo, Ambrosia artemisifolia; details: rated 4-5 weeks after treatment
Summary of the method: as §1

[12] = tested on: ZEAMX (Corn, Field); assay: Postemergence herbicidal evaluation; type: in vivo, Zea mays; details: postemergence
Summary of the method: as §2

[13] = tested on: ABUTH (Velvetleaf); assay: Preemergence herbicidal evaluation; type: in vivo, Abutilon theophrasti; details: rated 4-5 weeks after treatment
Summary of the method: as §1

[14] = tested on: SETVI (Foxtail, Green); assay: Preemergence herbicidal evaluation; type: in vivo, Setaria viridis; details: rated 4-5 weeks after treatment
Summary of the method: as §1

C[C@H](C(=O)O)N1C(=O)CSC1=Nc1cc(-n2c(=O)cc(C(F)(F)F)n(C)c2=O)c(F)cc1Cl [Compound 70, 2-{{2-Chloro-5-[3,6-dihydro-3-methyl-2,6-dioxo-4-(trifluoromethyl)-1(2H)-pyrimidinyl]-4-fluoro-phenyl}imino}-α-methyl-4-oxo-3-thiazolidineacetic acid, D-]
0.0: Preemergence herbicidal rating GLXMAW ([1]; rate 0.0156 kg/ha) | Preemergence herbicidal rating GLXMAW ([1]; rate 0.0313 kg/ha) | Preemergence herbicidal rating GLXMAW ([1]; rate 0.0625 kg/ha) | Preemergence herbicidal rating GLXMAW ([1]; rate 0.1250 kg/ha) | Herbicidal rating ECHORC ([3]; Rate 0.0313 kg/ha) | Herbicidal rating ECHORC ([3]; Rate 0.0625 kg/ha) | Herbicidal rating ECHORC ([3]; Rate 0.1250 kg/ha) | Herbicidal rating ECHORC ([3]; Rate 0.2500 kg/ha) | CYPSE herbicidal effect rating ([4]; 0.0313 kg/ha) | CYPSE herbicidal effect rating ([4]; 0.0625 kg/ha) | CYPSE herbicidal effect rating ([4]; 0.1250 kg/ha) | Preemergence herbicidal rating CASOB ([6]; rate 0.0156 kg/ha) | Preemergence herbicidal rating CASOB ([6]; rate 0.0313 kg/ha) | Preemergence herbicidal rating CASOB ([6]; rate 0.0625 kg/ha) | Preemergence herbicidal rating CASOB ([6]; rate 0.2500 kg/ha) | Preemergence herbicidal rating GALAP ([7]; rate 0.0156 kg/ha) | Preemergence herbicidal rating GALAP ([7]; rate 0.0313 kg/ha) | Preemergence herbicidal rating GALAP ([7]; rate 0.0625 kg/ha) | Preemergence herbicidal rating GALAP ([7]; rate 0.1250 kg/ha) | Preemergence herbicidal rating GALAP ([7]; rate 0.2500 kg/ha) | Preemergence herbicidal rating ECHCG ([9]; rate 0.0156 kg/ha) | Preemergence herbicidal rating ECHCG ([9]; rate 0.0313 kg/ha) | Preemergence herbicidal rating ECHCG ([9]; rate 0.0625 kg/ha) | Preemergence herbicidal rating AMBEL ([11]; rate 0.0156 kg/ha) | Preemergence herbicidal rating AMBEL ([11]; rate 0.0313 kg/ha) | Preemergence herbicidal rating AMBEL ([11]; rate 0.0625 kg/ha) | Preemergence herbicidal rating ABUTH ([13]; rate 0.0156 kg/ha) | Preemergence herbicidal rating ABUTH ([13]; rate 0.0313 kg/ha) | Preemergence herbicidal rating SETVI ([14]; rate 0.0156 kg/ha) | Preemergence herbicidal rating SETVI ([14]; rate 0.0313 kg/ha)
1.0: Preemergence herbicidal rating CASOB ([6]; rate 0.1250 kg/ha) | Preemergence herbicidal rating ECHCG ([9]; rate 0.1250 kg/ha) | Preemergence herbicidal rating ECHCG ([9]; rate 0.2500 kg/ha)
3.0: CYPSE herbicidal effect rating ([4]; 0.2500 kg/ha) | Preemergence herbicidal rating AMBEL ([11]; rate 0.1250 kg/ha)
5.5: GLXMAW herbicidal rating ([8]; rate 0.0315 kg/ha) | ZEAMX herbicidal rating ([12]; rate 0.0315 kg/ha)
9.0: IPOHE herbicidal rating ([2]; rate 0.0158 kg/ha) | IPOHE herbicidal rating ([2]; rate 0.0315 kg/ha) | IPOHE herbicidal rating ([2]; rate 0.0630 kg/ha) | Preemergence herbicidal rating AMBEL ([11]; rate 0.2500 kg/ha) | Preemergence herbicidal rating ABUTH ([13]; rate 0.2500 kg/ha) | Preemergence herbicidal rating SETVI ([14]; rate 0.1250 kg/ha) | Preemergence herbicidal rating SETVI ([14]; rate 0.2500 kg/ha)
7.0: GLXMAW herbicidal rating ([8]; rate 0.0630 kg/ha) | AMBEL herbicidal rating ([10]; rate 0.0630 kg/ha) | ZEAMX herbicidal rating ([12]; rate 0.0630 kg/ha)
6.0: AMBEL herbicidal rating ([10]; rate 0.0158 kg/ha) | AMBEL herbicidal rating ([10]; rate 0.0315 kg/ha) | Preemergence herbicidal rating ABUTH ([13]; rate 0.1250 kg/ha)
4.5: GLXMAW herbicidal rating ([8]; rate 0.0158 kg/ha)
2.0: Preemergence herbicidal rating GLXMAW ([1]; rate 0.2500 kg/ha) | Preemergence herbicidal rating SETVI ([14]; rate 0.0625 kg/ha)
4.0: SAGPY herbicidal effect rating ([5]; 0.0313 kg/ha) | SAGPY herbicidal effect rating ([5]; 0.0625 kg/ha) | SAGPY herbicidal effect rating ([5]; 0.1250 kg/ha) | SAGPY herbicidal effect rating ([5]; 0.2500 kg/ha) | ZEAMX herbicidal rating ([12]; rate 0.0158 kg/ha)
